Several values for one entry are separate records, joined by “and”; a condition that tells them apart may be missing. Equal entries are not always repeated.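 Following 48 hours of exposure in 96-well plates, responses at five concentrations were used to interpolate endpoints linearly. Abbreviation: GI50, concentration required for 50% inhibition of growth. At the TGI there is no net growth.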
What was measured:
Test in all cases: NCI anticancer screen, dose series, 48 h
HOP-62 NSCLC = system: HOP-62 NSCLC
HOP-92 NSCLC = system: HOP-92 NSCLC
KM12 colon = system: KM12 colon
MDA-MB-435 = system: MDA-MB-435
SK-MEL-5 melanoma = system: SK-MEL-5 melanoma
SNB-19 CNS = system: SNB-19 CNS
SR leukemia = system: SR leukemia
TK-10 renal = system: TK-10 renal
UACC-62 melanoma = system: UACC-62 melanoma
UACC-257 melanoma = system: UACC-257 melanoma

Structure (SMILES) | GI50 (HOP-62 NSCLC) | TGI (HOP-62 NSCLC) | GI50 (HOP-92 NSCLC) | TGI (HOP-92 NSCLC) | GI50 (KM12 colon) | TGI (KM12 colon) | GI50 (MDA-MB-435) | TGI (MDA-MB-435) | GI50 (SK-MEL-5 melanoma) | TGI (SK-MEL-5 melanoma) | GI50 (SNB-19 CNS) | TGI (SNB-19 CNS) | GI50 (SR leukemia) [µM] | TGI (SR leukemia) [µM] | GI50 (TK-10 renal) | TGI (TK-10 renal) [µM] | GI50 (UACC-62 melanoma) | TGI (UACC-62 melanoma) | TGI (UACC-257 melanoma) | GI50 (UACC-257 melanoma)
O=C1C(Cl)=C(Nc2cccc(O)c2)C(=O)N1c1ccc(Cl)c(Cl)c1 | 16.4 µM | 32.5 µM | 21.8 µM | 70.6 µM | 17 µM | 32.5 µM | 21.9 µM | 59.6 µM | 20 µM | 64.7 µM | 36 µM | > 100 µM | 14.2 | 67.1 | 25.7 µM | 63.8 | 27.6 µM | > 100 µM |  | 
CC(=O)OC1CCC2(C)C(=CCC3C2CCC2(C)C(C(C)C(=O)O)CCC32)C1 (stereo not given) |  | > 100 µM |  | > 100 µM |  | > 100 µM |  | > 100 µM |  | > 100 µM |  | > 100 µM |  | > 100 |  | > 100 |  | > 100 µM | > 100 µM | 
C=C(CS(=O)(=O)c1ccccc1)[P+](c1ccccc1)(c1ccccc1)c1ccccc1 |  | 90 µM |  | 65.6 µM |  | 29 µM |  |  |  | 29.1 µM |  | > 100 µM |  |  |  | 92.4 |  | 56.9 µM | 22.2 µM | 
CC(=O)OC1C(CCl)OC(N=[N+]=[N-])C(OC(C)=O)C1OC(C)=O (stereo not given) |  | > 100 µM |  |  |  | > 100 µM |  |  |  | > 100 µM |  | > 100 µM |  |  |  | > 100 |  | > 100 µM | > 100 µM | 
COc1cc([C@@H]2c3cc4c(cc3[C@@H](O[C@@H]3O[C@@H]5CO[C@@H](c6cccs6)O[C@H]5[C@H](O)[C@H]3O)[C@H]3COC(=O)[C@H]23)OCO4)cc(OC)c1O | 0.197 µM | 2.34 µM |  | 1.99 µM | 0.634 µM | 4.34 µM | 1.15 µM | > 39.2 µM | 0.157 µM | 1.33 µM | 0.167 µM | > 100 µM | 0.0101 | 15 |  |  | 0.233 µM | 3.3 µM | 10.5 µM | 0.796 µM
CC1=C(c2cc(C(=O)Nc3ccc(Cl)c(Cl)c3)nc(N)n2)Sc2ccccc2N1 |  | > 100 µM |  | > 100 µM |  | > 100 µM |  |  |  | > 100 µM |  | > 100 µM |  | > 100 |  | > 100 |  | > 100 µM | > 100 µM | 
C=C1C(=O)O[C@@H]2C[C@@H]1CC[C@@]1(C)O[C@@H]1CC[C@@]1(C)O[C@@H]1CC[C@@]2(C)O | 32.9 µM | > 100 µM |  |  | 26.2 µM | > 100 µM | 17.4 µM | 68.4 µM | 16.2 µM | 31.4 µM | 17.6 µM | 66 µM | 3.12 | 16.3 | 23.4 µM | 67.6 | 14.6 µM | 30.2 µM | > 100 µM | 43.6 µM
COc1cc(C2CC(c3cc(C)ccc3C)=NN2c2ccc(S(=O)(=O)NC(=O)NCc3ccccc3)cc2)cc(OC)c1OC (stereo not given) | 4.3 µM | 37.1 µM | 1.96 µM | 7.47 µM | 3.44 µM | 17.6 µM | 2.27 µM | 5.25 µM | 2.04 µM | 4.36 µM | 3.75 µM | 43.8 µM |  |  | 4.74 µM | 31 | 1.98 µM | 4.48 µM | 20.1 µM | 3.53 µM
CC(C)(C)[Si](C)(C)O/N=C\c1ccc(O[Si](C)(C)C(C)(C)C)cc1 |  | > 100 µM |  |  |  | > 100 µM |  |  |  | > 100 µM |  | > 100 µM |  |  |  | > 100 |  | > 100 µM | > 100 µM | 
C=C1Oc2nc3ccccc3c(=O)n2C1(C)C |  | > 100 µM |  | > 100 µM |  | > 10 µM |  |  |  | > 100 µM |  | > 100 µM |  |  |  | > 100 |  | > 100 µM | > 100 µM | 
O=C(O)C1c2ccccc2C(C(=O)O)c2ccccc21 (stereo not given) |  | > 100 µM |  | > 100 µM |  | > 100 µM |  |  |  | > 100 µM |  | > 100 µM |  | > 100 |  | > 100 |  | > 100 µM | > 100 µM | 
CC[C@H](C)n1cc(C)c2c(C(=O)NCc3c(C)cc(C)[nH]c3=O)cc(-c3ccc(N4CCNCC4)nc3)cc21 | 17.1 µM and 14.9 µM | 33.1 µM and 29.8 µM | 6.72 µM and 6.83 µM | 20.9 µM and 21.1 µM | 11.4 µM and 10.7 µM | 24.2 µM and 23.6 µM | 10 µM and 5.12 µM | 21.6 µM and 16.3 µM | 15.8 µM and 6.13 µM | 29.2 µM and 18 µM | 14.9 µM and 12.7 µM | 30.4 µM and 26.8 µM |  |  | 15.4 µM | 29.7 | 17.5 µM and 14.3 µM | 33.2 µM and 28.5 µM | 31.5 µM and 29.5 µM | 16.5 µM and 14.8 µM
Nc1ccccc1NC(=O)c1ccc(CN2CCC/C(=C\c3cccc(Cl)c3)C2=O)cc1 | 0.388 µM | > 100 µM | 1.76 µM | 16.2 µM | 0.378 µM | 13.4 µM |  |  | 0.0836 µM | 1.08 µM | 0.355 µM | > 100 µM | 0.156 | > 100 | 1.11 µM | 5.88 | 0.0517 µM | 14.6 µM |  | 
COc1cc2cc[n+]3c4cc(OC)c(OC)cc4c(C)cc3c2cc1OC |  | > 100 µM |  | > 100 µM |  | > 100 µM |  |  |  | > 100 µM |  | > 100 µM |  | > 100 |  | > 100 |  | > 100 µM | > 100 µM | 
COc1ccc2c(=O)c3cc([N+](=O)[O-])ccc3n(C)c2c1 |  |  |  | > 100 µM |  | > 100 µM |  | > 100 µM |  | > 100 µM |  | > 100 µM |  | > 100 |  | > 100 |  | > 100 µM | > 100 µM | 
CNc1ccc(-c2cc(=O)oc3ccc(Cl)cc23)cc1 | 0.0696 µM and 0.169 µM | > 100 µM |  | 7.96 µM | 0.0506 µM and 0.0433 µM | > 100 µM |  |  | 0.121 µM and 0.0772 µM | 1.11 µM and 2.56 µM | 0.23 µM and 0.0717 µM | > 100 µM | 0.0463 |  | 0.702 µM and 0.21 µM | > 100 | 0.0369 µM and 0.0431 µM | 89.7 µM | > 100 µM | > 100 µM
Cc1ccccc1N=Nc1c(O)[nH]c2ccccc12 |  | > 100 µM |  |  |  | > 100 µM |  | > 100 µM |  | > 100 µM |  | > 100 µM |  | > 100 |  | > 100 |  | > 100 µM | > 100 µM | 
COc1cccc(NC(=O)CC(=O)N2NC(C)C(N=Nc3cccc(C(=O)O)c3)C2=O)c1 (stereo not given) |  | > 100 µM |  | > 100 µM |  | > 100 µM |  |  |  | > 100 µM |  | > 100 µM |  | > 100 |  | > 100 |  | > 100 µM | > 100 µM | 

— PubChem BioAssay (NCI)
